These results are taken from patent US12421225B2, “Heteroaromatic amide derivative and medicament containing the same” (KAKEN PHARMACEUTICAL CO., LTD., priority 2018, dated 2025).

This experiment addresses human Nav1.7 (Homo sapiens (Human), UniProt Q15858). The experiment in a line: Human Nav1.7 inhibitory activity evaluation (automated patch clamp QPatch16X, HEK293A cells stably expressing human Nav1.7 and human Navβ1). The class given is cell-based. The protocol:
Test Example 1: Human Nav1.7 Inhibitory Activity Evaluation
A cell line in which human Nav1.7 and human Navβ1 subunits were stably expressed in HEK293A cells was used. Dulbecco's Modified Eagle Medium (DMEM) supplemeted with 10% fetal bovine serum, 600 μg/ml geneticin, and 2 μg/ml blasticidin S were used as culture medium under the conditions of 37° C. and 5% CO2 in T175 flasks to carry out culturing. When 60-80% confluence was reached, the cells were detached and a cell suspension of about 0.5-5.0×10^6 cells/mL was prepared. The amount of current through human Nav1.7 was recorded using a fully automatic patch clamp device QPatch16X (Sophion Biosciences) at room temperature. As the extracellular solution, the solution of 145 mM NaCl, 4 mM KCl, 1 mM MgCl2, 2 mM CaCl2, 10 mM Glucose, 10 mM 4-(2-hydroxyethyl)-1-piperazine ethanesulfonic acid (HEPES) at pH 7.4 was used. As the intracellular solution, the solution of 135 mM CsF, ⅕ mM glycol ether diaminetetraacetic acid (EGTA)/CsOH, 10 mM HEPES, 10 mM NaCl at pH 7.3 was used. The test compounds were dissolved in dimethyl sulfoxide (DMSO) and diluted with the extracellular solution to attain the DMSO concentration of 0.1% at the time of assay.
The current response was obtained at a sampling frequency of 25 kHz, and noise was removed with a 3 kHz low-pass filter. The holding potential was −100 mV. Correction of the leakage current was carried out by applying a step pulse of −120 mV before the test pulse. In order to investigate inhibitory action of the test compound, the following test pulse was given: Namely, after depolarizing pulse of −10 mV was applied for 50 milliseconds, it was fixed at −120 mV for 500 milliseconds; a potential at which about 30-40% of the channel was inactivated was maintained for 15 seconds, then fixed again at −120 mV for 100 milliseconds, and finally a −10 mV depolarization pulse was given for 50 milliseconds. Test pulses were given before and after the test compound addition.
The inhibitory activity of the test compound was determined based on the amount of inward current generated by the second depolarization pulse, and the 50% inhibitory concentration (IC50) was calculated from the concentration-response curve.
A general note: Patch clamp records ionic current or voltage across a cell membrane.

Where [1] appears, read: human Nav1.7, automated patch clamp.
The mark [2] stands for this setting: HEK293A cells stably expressing human Nav1.7 and human Navβ1, automated patch clamp QPatch16X.

Sequence of human Nav1.7 (Q15858 whole entry): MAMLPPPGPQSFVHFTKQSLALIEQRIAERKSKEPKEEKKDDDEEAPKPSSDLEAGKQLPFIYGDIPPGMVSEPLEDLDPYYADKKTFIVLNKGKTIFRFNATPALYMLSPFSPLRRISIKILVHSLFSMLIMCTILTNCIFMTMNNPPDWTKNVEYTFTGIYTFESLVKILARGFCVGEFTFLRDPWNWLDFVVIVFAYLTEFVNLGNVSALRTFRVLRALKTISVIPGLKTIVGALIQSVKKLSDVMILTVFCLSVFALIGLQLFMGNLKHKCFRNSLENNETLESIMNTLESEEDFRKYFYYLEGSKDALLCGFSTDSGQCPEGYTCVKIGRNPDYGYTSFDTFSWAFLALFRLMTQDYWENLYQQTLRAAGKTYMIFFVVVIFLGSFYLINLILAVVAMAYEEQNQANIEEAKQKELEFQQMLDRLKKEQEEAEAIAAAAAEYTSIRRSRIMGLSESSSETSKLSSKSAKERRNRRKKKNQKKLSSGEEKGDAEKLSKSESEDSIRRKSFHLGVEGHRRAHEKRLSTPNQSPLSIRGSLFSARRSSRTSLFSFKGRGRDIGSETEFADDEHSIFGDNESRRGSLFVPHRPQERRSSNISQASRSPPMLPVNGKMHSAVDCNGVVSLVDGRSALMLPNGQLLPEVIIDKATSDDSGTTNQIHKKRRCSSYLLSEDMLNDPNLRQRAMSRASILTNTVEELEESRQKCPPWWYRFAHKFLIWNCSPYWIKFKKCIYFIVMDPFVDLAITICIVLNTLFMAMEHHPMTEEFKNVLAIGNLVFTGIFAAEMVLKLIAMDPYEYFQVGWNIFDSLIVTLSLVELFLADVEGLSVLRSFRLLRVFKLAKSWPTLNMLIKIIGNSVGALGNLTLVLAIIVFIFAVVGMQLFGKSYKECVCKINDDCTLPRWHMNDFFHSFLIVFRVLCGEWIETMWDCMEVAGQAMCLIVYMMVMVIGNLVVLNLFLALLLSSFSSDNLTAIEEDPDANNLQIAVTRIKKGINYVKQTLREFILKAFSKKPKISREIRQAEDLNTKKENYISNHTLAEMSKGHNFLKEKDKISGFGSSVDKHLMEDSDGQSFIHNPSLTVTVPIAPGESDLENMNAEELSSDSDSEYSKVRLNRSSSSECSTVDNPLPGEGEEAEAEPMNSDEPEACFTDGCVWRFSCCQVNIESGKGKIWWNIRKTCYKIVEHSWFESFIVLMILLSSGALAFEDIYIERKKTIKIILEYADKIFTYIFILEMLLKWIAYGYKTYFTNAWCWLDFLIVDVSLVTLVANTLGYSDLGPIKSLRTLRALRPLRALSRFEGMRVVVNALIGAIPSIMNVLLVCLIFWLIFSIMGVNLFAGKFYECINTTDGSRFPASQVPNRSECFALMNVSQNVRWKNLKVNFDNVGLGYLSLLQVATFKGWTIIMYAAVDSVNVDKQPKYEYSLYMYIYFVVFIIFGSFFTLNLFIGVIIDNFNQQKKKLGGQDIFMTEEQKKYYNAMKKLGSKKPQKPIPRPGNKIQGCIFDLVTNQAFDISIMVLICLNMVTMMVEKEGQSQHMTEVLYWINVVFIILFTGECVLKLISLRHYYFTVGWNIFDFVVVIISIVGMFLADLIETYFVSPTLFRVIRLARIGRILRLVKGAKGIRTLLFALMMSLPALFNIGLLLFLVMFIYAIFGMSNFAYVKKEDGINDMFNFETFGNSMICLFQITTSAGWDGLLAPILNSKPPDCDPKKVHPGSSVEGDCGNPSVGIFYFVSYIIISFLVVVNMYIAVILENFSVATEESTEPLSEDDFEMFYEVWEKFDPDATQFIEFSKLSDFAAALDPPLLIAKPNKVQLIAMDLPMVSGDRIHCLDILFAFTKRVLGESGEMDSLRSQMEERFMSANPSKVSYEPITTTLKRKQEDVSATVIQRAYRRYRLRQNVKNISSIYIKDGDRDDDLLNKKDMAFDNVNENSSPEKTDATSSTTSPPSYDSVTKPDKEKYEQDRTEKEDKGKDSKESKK
Sequence of human Nav1.7 (Q07699 19-218 partner): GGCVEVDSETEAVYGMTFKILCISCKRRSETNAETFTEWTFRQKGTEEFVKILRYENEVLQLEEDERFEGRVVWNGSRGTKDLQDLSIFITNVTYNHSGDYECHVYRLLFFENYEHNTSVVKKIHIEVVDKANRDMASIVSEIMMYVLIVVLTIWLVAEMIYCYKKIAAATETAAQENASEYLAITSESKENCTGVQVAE

The compound `O=C(N[C@H]1COc2ccc(COCC(F)(F)F)cc2C1)c1cc2n(n1)CC(CC1CCOCC1)O2` (mixture of isomers) [Example 605] yielded a half-inhibitory concentration (IC50) under setting [1] below 1 µM.

As for `N#Cc1ccc2c(c1)C[C@@H](NC(=O)c1cc3n(n1)CCC(CC1CC1)O3)CO2` (single isomer, unassigned) [97 (isomer A)], the IC50 under setting [2] is below 1 µM.

As to `O=C(N[C@H]1COc2ccc(CC(F)F)cc2C1)c1cc2n(n1)CCC(COC(F)F)O2` (single isomer, unassigned) [138 (isomer A)], under setting [2], the 50% inhibitory concentration (IC50) is below 1 µM.

Under setting [2], `O=C(N[C@H]1COc2ccc(CC(F)F)cc2C1)c1cc2n(n1)CCC(COC(F)F)O2` (single isomer, unassigned) [138 (isomer B)] yielded an IC50 below 10 µM.

In turn, `N#Cc1ccc2c(c1)C[C@@H](NC(=O)c1cc3n(n1)CCC(CCOC(F)(F)F)O3)CO2` (single isomer, unassigned) [144 (isomer A)] yielded an IC50 under setting [1] below 1 µM.

For `N#Cc1ccc2c(c1)C[C@@H](NC(=O)c1cc3n(n1)CCC(CCOC(F)F)O3)CO2` (single isomer, unassigned) [146 (isomer A)], the IC50 under setting [1] is below 10 µM.

With `O=C(N[C@H]1COc2ccc(CC(F)F)cc2C1)c1cc2n(n1)CCC(CCOC(F)F)O2` (single isomer, unassigned) [148 (isomer A)], the IC50 under setting [1] is below 1 µM.

With `O=C(N[C@H]1COc2ccc(COCC(F)(F)F)cc2C1)c1cc2n(n1)CCC(CCOC(F)F)O2` (single isomer, unassigned) [150 (isomer A)], under setting [1], the IC50 is below 1 µM.

`O=C(N[C@H]1COc2ccc(COCC(F)(F)F)cc2C1)c1cc2n(n1)CCC(CN1CCC(F)(F)C1)O2` (single isomer, unassigned) [154 (isomer A)] had an IC50 under setting [1] below 10 µM.

`N#Cc1ccc2c(c1)C[C@@H](NC(=O)c1cc3n(n1)CCC(CSC(F)(F)F)O3)CO2` (single isomer, unassigned) [156 (isomer B)] displayed an IC50 under setting [1] below 10 µM.

As for `O=C(N[C@H]1COc2ccc(Cl)cc2C1)c1cc2n(n1)CCC(C(F)F)O2` (single isomer, unassigned) [158 (isomer B)], the IC50 under setting [1] was below 10 µM.

For the compound `O=C(N[C@H]1COc2ccc(C(F)(F)F)cc2C1)c1cc2n(n1)CCC(C(F)F)O2` (single isomer, unassigned) [161 (isomer B)], the 50% inhibitory concentration (IC50) under setting [1] is below 10 µM.

Compound `O=C(N[C@H]1COc2ccc(COCC(F)(F)F)cc2C1)c1cc2n(n1)CCC(C(F)F)O2` (single isomer, unassigned) [163 (isomer B)] came in with an IC50 under setting [1] below 10 µM.

Under setting [1], `O=C(N[C@H]1COc2ccc(CCOC(F)F)cc2C1)c1cc2n(n1)CCC(C(F)F)O2` (single isomer, unassigned) [165 (isomer A)] returned a half-inhibitory concentration (IC50) below 1 µM.

Compound `O=C(N[C@H]1COc2ccc(CCOC(F)F)cc2C1)c1cc2n(n1)CCC(C(F)F)O2` (single isomer, unassigned) [165 (isomer B)] registered an IC50 under setting [1] below 10 µM.

Consider `O=C(N[C@H]1COc2ccc(CC(F)F)cc2C1)c1cc2n(n1)CCC(C(F)(F)F)O2` (single isomer, unassigned) [173 (isomer B)], for which the half-inhibitory concentration (IC50) under setting [1] is below 10 µM.

Consider `O=C(N[C@H]1COc2ccc(COCC(F)(F)F)cc2C1)c1cc2n(n1)CC(C(F)(F)F)O2` (single isomer, unassigned) [184 (isomer B)], for which the half-inhibitory concentration (IC50) under setting [1] is below 10 µM.

In turn, `O=C(N[C@H]1COc2ccc(CC(F)(F)F)cc2C1)c1cc2n(n1)CC(COCC(F)(F)F)O2` (single isomer, unassigned) [192 (isomer B)] came in with an IC50 under setting [1] below 1 µM.

In the case of `Cc1cnc(-c2ccc3c(c2)C[C@@H](NC(=O)c2cc4n(n2)CC(COCC(F)(F)F)O4)CO3)cn1` (single isomer, unassigned) [194 (isomer A)], the IC50 under setting [1] was below 10 µM.

In the case of `O=C(N[C@H]1COc2ccc(CC(F)F)cc2C1)c1cc2n(n1)CC(COC(F)(F)F)O2` (single isomer, unassigned) [198 (isomer A)], the IC50 under setting [1] was below 10 µM.

`Cn1ccc(-c2ccc3c(c2)C[C@@H](NC(=O)c2cc4n(n2)CC(CCOCC(F)(F)F)O4)CO3)n1` (single isomer, unassigned) [206 (isomer A)] displayed a half-inhibitory concentration (IC50) under setting [1] below 1 µM.

`N#Cc1ccc2c(c1)C[C@@H](NC(=O)c1cc3n(n1)CC(CCOC(F)(F)F)O3)CO2` (single isomer, unassigned) [209 (isomer A)] showed an IC50 under setting [1] below 10 µM.

For `O=C(N[C@H]1COc2ccc(CC(F)F)cc2C1)c1cc2n(n1)CC(CCOC(F)(F)F)O2` (single isomer, unassigned) [211 (isomer A)], under setting [1], the half-inhibitory concentration (IC50) is below 1 µM.

On to `O=C(N[C@H]1COc2ccc(-c3cnccn3)cc2C1)c1cc2n(n1)CC(CCOC(F)F)O2` (single isomer, unassigned) [223 (isomer A)], for which, under setting [1], the IC50 is below 10 µM.

In turn, `Cc1ccc2c(c1)C[C@@H](NC(=O)c1cc3n(n1)CC(CCNCC(F)(F)F)O3)CO2` (single isomer, unassigned) [228 (isomer B)] displayed a half-maximal inhibitory concentration (IC50) under setting [1] below 10 µM.

Turning to `O=C(N[C@H]1COc2ccc(C(F)(F)F)cc2C1)c1cc2n(n1)CC(CCNCC(F)(F)F)O2` (single isomer, unassigned) [230 (isomer B)], the IC50 under setting [1] is below 10 µM.

Consider `O=C(N[C@H]1COc2ccc(CCOC(F)F)cc2C1)c1cc2n(n1)CC(CCN1CC(F)(F)C1)O2` (single isomer, unassigned) [238 (isomer A)], for which the IC50 under setting [1] was below 1 µM.

Under setting [1], `O=C(N[C@H]1COc2ccc(CCOC(F)(F)F)cc2C1)c1cc2n(n1)CC(CCN1CC(F)(F)C1)O2` (single isomer, unassigned) [240 (isomer A)] came in with an IC50 below 10 µM.

As to `O=C(N[C@H]1COc2ccc(CCOC(F)(F)F)cc2C1)c1cc2n(n1)CC(CCN1CC(F)(F)C1)O2` (single isomer, unassigned) [240 (isomer B)], the 50% inhibitory concentration (IC50) under setting [1] is below 10 µM.

`O=C(N[C@H]1COc2ccc(CC(F)(F)F)cc2C1)c1cc2n(n1)CC(CCN1CCC(F)(F)C1)O2` (single isomer, unassigned) [241 (isomer A)]: under setting [1], the concentration for half-maximal inhibition (IC50) is below 1 µM.

In turn, `O=C(N[C@H]1COc2ccc(C(F)(F)F)cc2C1)c1cc2n(n1)CC(CCN1CCC(F)(F)CC1)O2` (single isomer, unassigned) [242 (isomer A)] displayed an IC50 under setting [1] below 1 µM.

Under setting [1], `N#Cc1ccc2c(c1)C[C@@H](NC(=O)c1cc3n(n1)CC(CCCOC(F)F)O3)CO2` (single isomer, unassigned) [248 (isomer B)] gave a half-maximal inhibitory concentration (IC50) below 10 µM.

Under setting [1], `N#Cc1ccc2c(c1)C[C@@H](NC(=O)c1cc3n(n1)CCC(OC(F)(F)F)CO3)CO2` (single isomer, unassigned) [253 (isomer A)] displayed a half-inhibitory concentration (IC50) below 10 µM.

The compound `N#Cc1ccc2c(c1)C[C@@H](NC(=O)c1cc3n(n1)CCC(OC(F)(F)F)CO3)CO2` (single isomer, unassigned) [253 (isomer B)] returned an IC50 under setting [1] below 10 µM.

Under setting [1], `N#Cc1ccc2c(c1)C[C@@H](NC(=O)c1cc3n(n1)CCC(OCC(F)(F)F)CO3)CO2` (single isomer, unassigned) [255 (isomer A)] returned a half-maximal inhibitory concentration (IC50) below 10 µM.

`O=C(N[C@H]1COc2ccc(C(F)(F)F)cc2C1O)c1cc2n(n1)CCC(C(F)F)O2` (single isomer, unassigned) [534 (isomer A)] registered an IC50 under setting [1] below 10 µM.

With `O=C(N[C@H]1COc2ccc(C(F)(F)F)cc2C1O)c1cc2n(n1)CCC(C(F)F)O2` (single isomer, unassigned) [534 (isomer B)], under setting [1], the IC50 was below 10 µM.

Under setting [1], `CC(C)(F)C1CCn2nc(C(=O)N[C@H]3COc4ccc(C#N)cc4C3)cc2O1` (single isomer, unassigned) [547 (isomer B)] came in with an IC50 below 10 µM.

In general, IC50 refers to the concentration that gives 50% inhibition. High values mean weaker potency in that assay, low ones greater potency in that assay.
